The values below come from US20160220710A1, “COMPOSITIONS AND METHODS FOR DELIVERING PHARMACEUTICAL AGENTS” (THE REGENTS OF THE UNIVERSITY OF MICHIGAN, priority 2015, published 2016).

In series [1] the test system is carrageenan-based footpad-edema model. Description: Carrageenan footpad edema model, local injection 48 h post carrageenan. It is filed as in vivo, mice. Particulars: 30 μl, injected 48 h post carrageenan; for subsequent footpad swelling after local injection: 2 mM. As for the experimental part: (§1) Mice Carrageenan Footpad Edema Model. Carrageenan (C1867, Sigma-Aldrich®, 2% in PBS, 30 μl) was injected into the right footpad while PBS (30 μl) was injected in the left footpad as a negative control. For preliminary testing of CFZ as an anti-inflammatory agent, 8-week orally fed mice (CFZ and control) were used. For testing of CFZ in soluble and microcrystal form, naïve 4-5 week old mice were injected with carrageenan first followed by injection of CFZ-A (2 mM in DMSO, 30 μl), CLDIs (2 mM equivalent in PBS, 30 μl) or CFZ-HCl (2 mM equivalent in PBS, 30 μl) at 48 h post carrageenan injection. For control experiments, CFZ-A, CLDIs and CFZ-HCl were injected into the right footpads of naïve 4-5 week old mice. DMSO was used as a control for CFZ-A in the left footpad whereas PBS was used as a control for CLDIs and CFZ-HCl. Footpads were measured (length—l, width—w, three thicknesses—t1, t2, t3) at various time points using a digital vernier calliper and changes in the swelling based on volume of the foot was calculated as per above.
A general note: Carrageenan injected into the paw causes an acute inflammation.

In the next series the test system is footpad swelling. Description: Footpad injections alone in naïve mice. The format is in vivo. The settings on record: 2 mM, 30 μl. The method, then:
as §1

“Also recorded” adds a separate entry of the source.

`CC(C)N=c1cc2n(-c3ccc(Cl)cc3)c3ccccc3nc-2cc1Nc1ccc(Cl)cc1.Cl` [CFZ-A]: the “subsequent footpad swelling after local injection” value in series [1] is “did not lead to a measurable anti-inflammatory response”. In the series on footpad swelling, the “inflammation/swelling after injection alone” value is recorded as “measurable inflammatory response initially; also recorded: some swelling”.

Consider `CC(C)N=c1cc2n(-c3ccc(Cl)cc3)c3ccccc3nc-2cc1Nc1ccc(Cl)cc1.Cl` [CFZ-HCl], for which the “footpad swelling inhibition beyond 24 h post therapy” value in series [1] (2 mM equivalent) is listed as “sustained for a further 24 h”. For the same compound, the “subsequent footpad swelling after local injection” value in series [1] is “inhibited for 24 h post therapy”. Moreover, in the series with footpad swelling, the “inflammation/swelling after injection alone” value was “did not induce any measurable inflammation; also recorded: no signs of swelling”.
